This note sets out measurements from US20080118494A1, “Compositions For Detection Of Latent Hiv Reactivation And Methods Of Using The Same” (priority 2004, published 2008).

The subject of this test is latent HIV-1 infection in LWI6 cells. The test can be described thus: Reactivation of latent HIV-1 in LWI6 reporter cells, EGFP plate based fluorometry (384-well). It is filed as cell-based. The conditions noted are these: LWI6, 1×10^5 cells/well, 384-well plate. The text has this: Latently HIV-1 infected reporter cell lines with an increased dynamic range of the EGFP signal. An indicator cell line with HTS feasibility was generated through stable transfection with a reporter plasmid in which the HIV-1 promoter (long terminal repeat; LTR) controls the expression of EGFP. Nucleic acid sequences for HIV-1 LTR (SEQ ID NO:1) can be accessed via GenBank Accession No. X03189. All of the information, including any nucleic acid and amino acid sequences provided for HIV-1 LTR under GenBank Accession X03189 is hereby incorporated in its entirety by this reference. […] In the resulting latently infected T cell clones (LWI4, LWI6, LWI7, LRJ3, LRJ5, LRJ12), maximal EGFP expression was increased by a factor of 10 in comparison to other reporter cell lines incorporating GFP into the HIV-1 genome when analyzed by flow cytometry (FIG. 1).
Assay optimization in […] format plates. […] The need to work with low quantities of material and thus low numbers of reporter cells that are treated has to be balanced with the requirements to obtain a sufficiently high signal to background ratio to avoid false negative hits during the screen. […] Although EGFP fluorescence continued to increase up to the highest density of cells, wells with 1×10^5 cells gave a 40-fold increase of EGFP fluorescence intensity over background after 24 h, and an 80-fold increase after 48 h. […]

With TNF-α, the “increase of EGFP fluorescence intensity over background” value (after 24 h) is listed as 40 fold and the “increase of EGFP fluorescence intensity over background” value (after 48 h) is on record as 80 fold.
